In assay [1] the test system is PMA-stimulated P90RSK(Ser380) phosphorylation in HepG2 cells. Nature of the assay: Cellular P90RSK(Ser380) Phosphorylation Assay. The conditions noted are these: Homo sapiens, 1.5 hours compound incubation, PMA 100 ng/mL, normalized to GAPDH, single assay or mean of multiple assays, read-out: Biological Example 2 IC50. The class given is cell-based. The protocol:
Inhibition of PMA-stimulated P90RSK(Ser380) phosphorylation was determined by the following in vitro cellular mechanistic assay, which comprises incubating cells with a compound for 1.5 hours and quantifying fluorescent pP90RSK(Ser380) signal on fixed cells and normalizing to GAPDH signal.
HepG2 cells were obtained from ATCC (Manassas, Va.) and grown in DMEM supplemented with 10% fetal bovine serum. Cells were plated in 96-well plates at 35,000 cells/well and allowed to attach overnight at 37° C./5% CO2. Diluted compounds were then added at a final concentration of 0.5% DMSO. After 1.5 hours compound incubation, cells were stimulated with the addition of phorbol 12-myristate 13-acetate (“PMA”) at a final concentration of 100 ng/mL; the PMA stimulation was a 30-minute incubation at 37° C./5% CO2. After the 30-minute PMA stimulation, cells were washed with phosphate buffered saline (“PBS”) and fixed in 3.7% formaldehyde in PBS at room temperature for 15-20 minutes. This was followed by another wash in PBS and then permeabilization in 100% MeOH at room temperature for 10-15 minutes. Following the permeabilization incubation, cells were washed in PBS/0.05% Tween-20, followed by a block in Odyssey blocking buffer (LI-COR Biosciences) for at least 1 hour. Antibodies to phosphorylated P90RSK(Ser380) (Cell Signaling #9335, rabbit monoclonal) and GAPDH (Fitzgerald 10R-G109a, mouse monoclonal) were added to the cells and incubated overnight at 4° C. pP90RSK(Ser380) antibody was used at a 1:250 dilution; GAPDH was used at a 1:10,000 dilution. After washing with PBS/0.05% Tween-20, the cells were incubated with fluorescently-labeled secondary antibodies (Anti-rabbit-Alexa Flour680, Invitrogen Cat#A21109; Anti-mouse-IRDye800CW, Rockland Inc. Cat#610-131-121) for 1 hour. Both secondary antibodies were used at a 1:1000 dilution. Cells were then washed and analyzed for fluorescence at both wavelengths using the Odyssey Infrared Imaging System (LI-COR Biosciences). Phosphorylated P90RSK(Ser380) signal was normalized to GAPDH signal.

Assay [2] deals with human ERK-2 (Mitogen Activated Kinase 1) (Homo sapiens (Human), UniProt P28482). Nature of the assay: ERK-2 Enzymatic Assay. The format is biochemical. Conditions: ERK-2 enzyme, 25 μM ATP; single assay or mean of multiple assays; read-out: Biological Example 1 IC50.
Chain of human ERK-2 (Mitogen Activated Kinase 1) (P28482 8-360): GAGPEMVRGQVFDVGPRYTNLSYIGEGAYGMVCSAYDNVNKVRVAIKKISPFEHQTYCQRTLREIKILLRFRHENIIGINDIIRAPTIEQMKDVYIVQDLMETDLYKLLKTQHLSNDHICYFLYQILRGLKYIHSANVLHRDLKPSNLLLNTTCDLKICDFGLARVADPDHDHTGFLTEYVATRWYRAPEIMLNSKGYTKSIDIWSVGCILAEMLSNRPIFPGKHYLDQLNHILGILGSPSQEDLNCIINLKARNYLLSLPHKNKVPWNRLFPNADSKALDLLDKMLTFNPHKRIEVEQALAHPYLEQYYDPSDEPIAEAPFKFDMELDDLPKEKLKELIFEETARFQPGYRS

Results on eleven compounds are retold here after patent US9670208B2, “Serine/threonine kinase inhibitors” (Array BioPharma Inc., priority 2013, dated 2017).

A value given as a limit tells only on which side of the number the result lay.

In general, IC50 refers to the point on the concentration scale where inhibition reaches its midpoint.

In the case of `Cn1nccc1Nc1nccc(-c2ccn3c(CC45CC6CC(CC(C6)C4)C5)nnc3c2)n1` [Example 379, 4-(3-((1s,3s)-adamantan-1-ylmethyl)-[1,2,4]triazolo[4,3-a]pyridin-7-yl)-N-(1-methyl-1H-pyrazol-5-yl)pyrimidin-2-amine], the IC50 in assay [1] stood at 24.7 nM; in assay [2], 2.4 nM.
For `CCC=Cc1nnc2cc(-c3ccnc(Nc4ccnn4C)n3)ccn12` (stereo in doubt) [Example 258, (E)-4-(3-(but-1-en-1-yl)-[1,2,4]triazolo[4,3-a]pyridin-7-yl)-N-(1-methyl-1H-pyrazol-5-yl)pyrimidin-2-amine], in that order: 178 nM and 5.7 nM.
For the compound `Fc1c(-c2ccnc(NC3CCOCC3)c2)ccn2c(Cc3ccc(Cl)cc3)nnc12` [Example 112, 4-(3-(4-chlorobenzyl)-8-fluoro-[1,2,4]triazolo[4,3-a]pyridin-7-yl)-N-(tetrahydro-2H-pyran-4-yl)pyridin-2-amine], the IC50 came out at 862 nM in assay [1] and 17 nM in assay [2].
In the case of `Cn1nccc1Nc1nccc(-c2ccn3cnnc3c2)n1` [Example 411, 4-([1,2,4]triazolo[4,3-a]pyridin-7-yl)-N-(1-methyl-1H-pyrazol-5-yl)pyrimidin-2-amine], the IC50 in assay [1] amounted to 607 nM; in assay [2], 11 nM.
In the case of `COc1ccc(Cc2nnc3cc(-c4ccnc(NC5CCOCC5)n4)ccn23)cc1F` [Example 403, 4-(3-(3-fluoro-4-methoxybenzyl)-[1,2,4]triazolo[4,3-a]pyridin-7-yl)-N-(tetrahydro-2H-pyran-4-yl)pyrimidin-2-amine], the IC50 was determined as 18.6 nM in assay [1] and 0.9 nM in assay [2].
In the case of `CC(=O)NC(Cc1nnc2cc(-c3ccnc(Nc4ccnn4C)n3)ccn12)c1ccc(F)c(Cl)c1` (stereo not shown) [Example 467, N-(1-(3-chloro-4-fluorophenyl)-2-(7-(2-((1-methyl-1H-pyrazol-5-yl)amino)pyrimidin-4-yl)-[1,2,4]triazolo[4,3-a]pyridin-3-yl)ethyl)acetamide], the IC50 in assay [1] was determined as 3350 nM; in assay [2] it was 1.8 nM.
`c1ccc(Cc2nnc3cc(-c4ccnc(NC5CCOCC5)n4)ccn23)nc1` [Example 278, 4-(3-(pyridin-2-ylmethyl)-[1,2,4]triazolo[4,3-a]pyridin-7-yl)-N-(tetrahydro-2H-pyran-4-yl)pyrimidin-2-amine]: the IC50 turned out to be 67.6 nM in assay [1] and 0.8 nM in assay [2].
With `O=C(c1c(F)cccc1F)N1CCOC(c2nnc3cc(-c4ccnc(NC5CCOCC5)n4)ccn23)C1` (stereo not shown) [Example 140, (2,6-difluorophenyl)(2-(7-(2-((tetrahydro-2H-pyran-4-yl)amino)pyrimidin-4-yl)-[1,2,4]triazolo[4,3-a]pyridin-3-yl)morpholino)methanone], the IC50 is 486 nM in assay [1] and 7.5 nM in assay [2].
Take `Cn1nccc1Nc1nccc(-c2ccn3c(Cc4ccc(F)cc4F)nnc3c2)n1` [Example 67, 4-(3-(2,4-difluorobenzyl)-[1,2,4]triazolo[4,3-a]pyridin-7-yl)-N-(1-methyl-1H-pyrazol-5-yl)pyrimidin-2-amine]: the IC50 was found to be 7.5 nM in assay [1] and 2.8 nM in assay [2].
As to `COc1ncc(F)cc1CN1CCCC(c2nnc3cc(-c4ccnc(NC5CCOCC5)n4)ccn23)C1` (stereo not shown) [Example 132, 4-(3-(1-((5-fluoro-2-methoxypyridin-3-yl)methyl)piperidin-3-yl)-[1,2,4]triazolo[4,3-a]pyridin-7-yl)-N-(tetrahydro-2H-pyran-4-yl)pyrimidin-2-amine], the results for the IC50 in assay [1] and in assay [2] were greater than 5000 nM and 197 nM, respectively.
Turning to `Cn1nccc1Nc1nccc(-c2ccn3c(Cc4cccc(-c5ccccc5)n4)nnc3c2)n1` [Example 275, N-(1-methyl-1H-pyrazol-5-yl)-4-(3-((6-phenylpyridin-2-yl)methyl)-[1,2,4]triazolo[4,3-a]pyridin-7-yl)pyrimidin-2-amine], the IC50 in assay [1] was determined as 20 nM; in assay [2] it was 1.5 nM.
